Test results reported in US9404087B2, “Insulin producing cells derived from pluripotent stem cells” (Kadimastem Ltd., priority 2010, dated 2016).

Key:
Type in all cases: cell-based
[1] = tested on: human ES cells; test: Immunofluorescence for Pdx1 positive cells during differentiation
Experimental: On day 6, cells were washed with DMEM/F12, 2 mM glutamine, 1×PS, and medium changed to differentiation medium B1 (DMEM/F12, 2 mM glutamax (Invitrogen), 2 mg/ml BSA, 1% B27 supplement (In Vitrogen) 50 ng/ml human recombinant FGF10 (Preprotech), and 10 μM Forskolin (F-6886 from coleus forskohlii (SIGMA)). The cells were left two days in the same medium.
On day 8, the medium was changed to differentiation medium B2 i.e. medium B1 with addition of 2 μM fresh ATRA (All trans retinoic acid) for five days. Medium was changed every two days.
(§1) On day 13, medium was changed to DMEM/F12, Glutamine 2 mM, PS, 1×ITS supplement (Invitrogen), 2 mg/ml BSA, 5 μg/ml bovine fibronectin (Biological Industries Bet Ha'emek,), Nicotinamide 10 mM (SIGMA) and exendin-4, 5-50 ng/ml. Medium was changed every two days. Cells positive for C-peptide staining start to appear around day 19 of differentiation, but strong immunostaining for C-peptide appears at day 23 and positive islet like structures continue to form till day 50 and persist for at least 70 days. When the cells have differentiated more than 15-20 days, they can be further trypsinized and replated. On the second plating, islet-like structures appear 20-30 days after replating.
Performed as in Example 1. Goat polyclonal anti-human Pdx1/IPF1 (R&D) antibody at 1:100 for 2 hrs, (blocking at 5% BSA in PBS with Triton 0.1%) was used. […]

[2] = tested on: human ES cells; test: Immunostaining for C-peptide and glucagon in islet-like structures
Experimental: as §1
Cultures obtained as in Examples 1 and 2 were further cultured in ITS medium (as detailed in step III of Example 2) and were stained using polyclonal rabbit antibody to C-peptide (Acris) or monoclonal antibody (MAB 1975, Abcam) at dilution 1:200 overnight. To detect glucagon-produing cells, the cultures were also stained with goat polyclonal antibody against Glucagon (Santa Cruz N-17) at the concentration of 1:200 over night. The glucose transporter Glut2 was detected with mouse monoclonal Anti Glut-2 antibodies (R&D systems) used at the concentration of 1:200. […]

[3] = tested on: human insulin C-peptide; test: Content of human insulin C-peptide by ELISA in cell fractions; conditions: EDTA added during re-aggregation (Table 2, Expt 3)
Experimental: On day 20, the medium used in step III of Example 2 was modified to adjust the glucose concentration to 5.5 mM (referred to herein as DM7). For isolation of EpCAM^+ cells by magnetic cell sorting (MACS technology, Miltenyi Biotec), a 10 cm-diameter plate was washed with PBS^−/− (no Ca^++, no Mg^++). Cells were then dissociated by treatment with Accutase (Stempro, 2.5 ml/10 cm plate), for 10 minutes at 37° C., and pipetting up and down. The cells were collected in DM7 and an aliquot counted in a NucleoCounter (New Brunswick). Cells were centrifuged at 1,500 rpm (350×g) for 5 minutes and re-suspended in MACS buffer (PBS^−/− with 0.5% BSA, 2 mM EDTA), using 0.3 ml for 50 million cells. Magnetic beads conjugated to anti-EpCAM antibodies (Miltenyi Biotec—CD326 pluripotent stem cells microbeads) were added (0.1 ml beads for 50 million cells). After 30 minutes at 4° C., the cells were washed once in 50 ml of MACS buffer, centrifuged, and finally re-suspended in 0.5 ml MACS buffer (for a maximum of 10^8 cells). […]
Aliquots of the Presort culture and of EpCAM-MACS-separated fractions (from step 7), as well as of re-aggregated clusters (step 8) were analyzed. The number of cells was counted, using the Nucleocounter. […] Human insulin mRNA was quantitated by RT-qPCR (Taq-Man, Applied Biosystems, Step One) using the TATA binding protein (TBP) gene as reference. […]

[4] = tested on: Human insulin mRNA; test: Human insulin mRNA by RT-qPCR with TBP as reference; conditions: EDTA added during the re-aggregation step
Experimental: Aliquots of the Presort culture and of EpCAM-MACS-separated fractions (from step 7), as well as of re-aggregated clusters (step 8) were analyzed. The number of cells was counted, using the Nucleocounter. After centrifugation at 350×g for 5 minutes, cell pellets were dissolved in M-PER (Mammalian protein extraction reagent, Pierce), typically using 0.1 ml M-PER for 2 million cells, and content of human insulin C-peptide was measured with an ELISA kit (Mercodia, Upsalh, Sweden, ultrasensitive c-peptide kit (minimal detection 5 pM) or Mercodia c-peptide ELISA (minimal detection 90 pM). Samples in M-PER were diluted 3 fold, or more in the kit buffer, and 20 μl of the ⅓ dilution were assayed. Results were expressed per mg total protein (as measured by Bradford assay) and per million cells (counted in a NucleoCounter). Other cell pellets were suspended in 0.7 ml buffer RLT (RNAeasy, Qiagen) per million cells, for RNA extraction. Human insulin mRNA was quantitated by RT-qPCR (Taq-Man, Applied Biosystems, Step One) using the TATA binding protein (TBP) gene as reference. In the same way, proteins and RNA were extracted from entire plates after scraping the cells with a rubber policeman. […]

CC1=C(/C=C/C(C)=C/C=C/C(C)=C/C(=O)O)C(C)(C)CCC1 [retinoic acid, All trans retinoic acid]
cultured cells expressing Pdx1 ([1]; day 14, two days after end of retinoic acid treatment (2 μM ATRA with FGF10 and forskolin)): about 50%

exendin-4: maturation factor added to ITS medium at 5-50 ng/ml
effect on the percentage of Pdx1 positive cells ([1]; 5-50 ng/ml, with nicotinamide, cell counting (data not shown)): positive effect
total amount of cells positive for C-peptide versus control without exendin-4 ([2]; 5 ng/ml, after 60 days of differentiation (FIGS. 9A-B)): sufficient to increase
number of C-peptide/glucagon positive areas, 50 ng/ml relative to 5 ng/ml ([2]; day 60 (not shown)): 3 time more

O=C(O)CN(CCN(CC(=O)O)CC(=O)O)CC(=O)O [EDTA, reference compound]
effect on C-peptide content of re-aggregated cells [3]: further increase
effect on enrichment of insulin mRNA [4]: increased
